According to patent US7485669B2, “Blockade of sodium channels by phenol derivatives” (B. Braun Melsungen AG, priority 2000, dated 2009):
Read-outs that look alike come from different tables or passages of the source. Each block holds one compound with its values, some of them ahead of it.

How the values were obtained:
[1] = molecular target: T1, human skeletal muscle sodium channels (Homo sapiens, UniProt P35499); experiment: Whole-cell voltage-clamp of heterologously expressed human skeletal muscle sodium channels in HEK 293 cells; format: cell-based; settings: for time constant of channel inactivation τh: 40 ms steps −100 mV to 0 mV, control 0.43±0.08 ms; for frequency-dependent block: additional fall relative to the first pulse: 100 Hz train, −100 mV to 0 mV
T1 construct: expressed in transfected cells
Source text: The sodium channel blocking potency effects of different phenol derivatives with methyl and halogen substituents have been studied on heterologously expressed human skeletal muscle sodium channels. The phenol derivatives encompassed by formula (I) are either commercially available or can be synthesized by conventional standard laboratory methods.
Wild type α-subunits of human muscle sodium channels were heterologously expressed in human embryonic kidney (HEK 293) cells, a stable cell line since […] (American Tissue Culture Collection CRL 1573). Transfection was performed using calcium phosphate precipitation (Graham & Van der Eb, Virology, 52 (1973) 456-467). Permanent expression was achieved by selection for resistance to the aminoglycoside antibiotic geneticin G418 (Life Technology, Eggenstein, Germany) (Mitotic et al., J. Physiol., 478 (1994) 395-402). Successful channel expression was verified electrophysiologically. The clone has been used in several investigations (Haeseler et al.,Br. J. Pharmacol., 128 (1999) 1259-67; Haeseler et al., Br. J. Pharmacol. 130 (2000) 1321-1330; Mitrovic et al., ibid.).
3,5-dimethyl-4-chlorophenol (according to the invention) and 3-methylphenol (not according to the invention) were purchased from Sigma Chemicals, Deisenhofen, Germany; 4-chloro-2-methylphenol (not according to the invention) and 4-chlorophenol (not according to the invention) were from FLUKA, Deisenhofen, Germany. 3,5-Dimethyl-4-chlorophenol was prepared as a 1 M stock solution in methanol; 4-chloro-2-methylphenol, 4-chlorophenol, and 3-methylphenol were dissolved directly in the bath solution immediately before the experiments. Concentrations were calculated from the amount injected into the glass vials. Drug-containing solutions were protected from light and were vigorously vortexed for 60 min. The solution was applied via a glass polytetrafluoroethylene perfusion system and a stainless steel superfusion pipette. The bath solution contained (mM) NaCl 140, MgCl2 1.0, KCl 4.0, CaCl2 2.0, Hepes 5.0, dextrose 5.0. Patch electrodes contained (mM) […] 130, MgCl2 2.0, EGTA 5.0, Hepes 10. All solutions were adjusted to 290 mosm/l by the addition of mannitol and to pH 7.4 by the addition of CsOH.
Standard whole-cell voltage-clamp experiments (Hamill et al., Pfuegers Arch., 391 (1981) 85-100) were performed at 20° C. Each experiment consisted of test recordings with the drug present at only one concentration, and of drug-free control recordings before and after the test. Each whole-cell patch was exposed to one test concentration only. At least four experiments were performed at each concentration. The amount of the diluent methanol corresponding to the test concentration of 3,5-dimethyl-4-chlorophenol was added to the control solution. Patched cells were lifted into the visible stream of either bath solution or test solution, applied via a two-channel superfusion pipette close to the cell. To ensure adequate adjustment of the application device, one test experiment in distilled water reducing inward sodium current to zero was performed every 6-10 experiments.
For data acquisition and further analysis we used the EPC9 digitally-controlled amplifier in combination with Pulse and Pulse Fit software (HEKA Electronics, Lambrecht, Germany). The EPC9 provides automatic subtraction of capacitive and leakage currents by means of a prepulse protocol. The data were filtered at 10 kHz and digitized at 20 μs per point. Input resistance of the patch pipettes was at 1.8-2.5 MΩ. Only small cells with capacitances of 9-15 pF were used; residual series resistance (after 50% compensation) was 1.2-2.5 MΩ; experiments with a rise in series resistance were rejected. The time constant of the voltage settling within the membrane (residual series resistance×cell capacitance) was less than 35 μs. […]

[2] = molecular target: heterologously expressed muscle sodium channels (Homo sapiens, UniProt P35499); settings: −100 mV; Fan et al. 1996; read-out: IC50 for block of heterologously expressed muscle sodium channels at −100 mV; cited from earlier work
[3] = IC50 for block of inward sodium current at a holding potential of −150 mV, holding potential −150 mV, 10 ms pulse to 0 mV
[4] = IC50 for block of sodium currents on depolarization from -100 mV to 0 mV, holding potential −100 mV, test pulse to 0 mV

T1 sequence (P35499 whole entry): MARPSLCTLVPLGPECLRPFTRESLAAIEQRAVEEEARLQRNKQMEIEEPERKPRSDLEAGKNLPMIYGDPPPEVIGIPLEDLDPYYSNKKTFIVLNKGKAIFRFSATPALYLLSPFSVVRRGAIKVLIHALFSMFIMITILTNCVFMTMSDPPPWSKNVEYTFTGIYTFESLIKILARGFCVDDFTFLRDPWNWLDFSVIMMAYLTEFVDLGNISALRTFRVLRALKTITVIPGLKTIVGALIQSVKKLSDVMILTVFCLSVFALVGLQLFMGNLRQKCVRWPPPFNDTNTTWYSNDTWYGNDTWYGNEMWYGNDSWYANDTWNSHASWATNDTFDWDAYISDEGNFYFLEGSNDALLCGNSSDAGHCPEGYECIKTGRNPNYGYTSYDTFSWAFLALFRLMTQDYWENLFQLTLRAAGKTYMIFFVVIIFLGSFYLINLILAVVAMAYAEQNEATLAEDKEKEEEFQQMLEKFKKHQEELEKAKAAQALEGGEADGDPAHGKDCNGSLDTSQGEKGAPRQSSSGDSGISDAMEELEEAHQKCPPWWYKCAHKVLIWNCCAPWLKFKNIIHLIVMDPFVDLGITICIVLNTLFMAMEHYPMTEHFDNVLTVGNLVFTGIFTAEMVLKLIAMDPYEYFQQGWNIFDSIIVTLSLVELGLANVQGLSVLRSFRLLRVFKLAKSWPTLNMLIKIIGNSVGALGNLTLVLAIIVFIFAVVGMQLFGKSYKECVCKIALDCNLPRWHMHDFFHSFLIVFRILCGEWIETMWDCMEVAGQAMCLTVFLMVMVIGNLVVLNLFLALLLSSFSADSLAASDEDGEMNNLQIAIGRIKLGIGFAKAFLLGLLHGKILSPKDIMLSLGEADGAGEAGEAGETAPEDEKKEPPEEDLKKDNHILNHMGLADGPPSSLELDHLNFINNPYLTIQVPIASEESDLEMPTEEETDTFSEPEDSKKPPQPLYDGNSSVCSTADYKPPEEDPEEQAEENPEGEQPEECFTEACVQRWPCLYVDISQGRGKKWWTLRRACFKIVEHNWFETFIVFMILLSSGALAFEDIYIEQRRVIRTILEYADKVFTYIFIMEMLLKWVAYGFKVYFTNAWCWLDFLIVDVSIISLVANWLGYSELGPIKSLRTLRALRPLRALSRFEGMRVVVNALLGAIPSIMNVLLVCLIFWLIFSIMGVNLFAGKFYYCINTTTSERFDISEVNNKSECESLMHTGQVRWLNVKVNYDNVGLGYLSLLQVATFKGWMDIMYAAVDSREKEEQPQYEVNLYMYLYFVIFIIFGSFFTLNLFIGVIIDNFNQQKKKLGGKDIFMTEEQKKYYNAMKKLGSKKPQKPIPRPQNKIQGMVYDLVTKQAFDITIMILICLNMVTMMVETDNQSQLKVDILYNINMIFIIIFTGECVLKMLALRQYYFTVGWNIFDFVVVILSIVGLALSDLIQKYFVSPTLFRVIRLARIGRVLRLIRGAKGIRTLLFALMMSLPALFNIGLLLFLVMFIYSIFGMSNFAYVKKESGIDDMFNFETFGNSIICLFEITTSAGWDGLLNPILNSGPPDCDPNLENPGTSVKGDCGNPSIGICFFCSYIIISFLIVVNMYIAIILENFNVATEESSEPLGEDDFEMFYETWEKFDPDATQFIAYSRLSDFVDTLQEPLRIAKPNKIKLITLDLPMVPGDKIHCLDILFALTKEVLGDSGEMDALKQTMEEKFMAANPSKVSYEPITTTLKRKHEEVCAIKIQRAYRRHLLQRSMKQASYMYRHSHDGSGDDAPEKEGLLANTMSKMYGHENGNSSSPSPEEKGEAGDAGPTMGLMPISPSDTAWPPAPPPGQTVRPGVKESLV
Sequence of heterologously expressed muscle sodium channels (P35499 whole entry): as above

time constant of channel inactivation τh ([1]; 50 μM drug): 0.27 ± 0.02 ms | frequency-dependent block: additional fall relative to the first pulse ([1]; 300 μM drug): 17±5% | Kd ([1]; derived from drug-induced shifts in steady-state availability curves, read-out: KD for the fast-inactivated state): 14 µM | IC50 ([1]; holding potential −100 mV, test pulse to 0 mV, read-out: IC50 for block of sodium currents on depolarization from -100 mV to 0 mV): 150 µM | IC50 ([1]; holding potential −150 mV, 10 ms pulse to 0 mV, read-out: IC50 for block of inward sodium current at a holding potential of −150 mV): 162 µM
Structure (SMILES): Cc1cc(O)cc(C)c1Cl [3,5-dimethyl-4-chlorophenol]

Structure (SMILES): Cc1cccc(O)c1 [3-methylphenol]
time constant of channel inactivation τh ([1]; 1000 μM drug): 0.30 ± 0.08 ms | frequency-dependent block: additional fall relative to the first pulse ([1]; 3000 μM drug): 8±2% | IC50 [1, 3]: 2400 µM | IC50 [1, 4]: 2160 µM

Structure (SMILES): Cc1cc(Cl)ccc1O [4-chloro-2-methylphenol]
time constant of channel inactivation τh ([1]; 100 μM drug): 0.27 ± 0.05 ms | frequency-dependent block: additional fall relative to the first pulse ([1]; 500 μM drug): 16±5% | IC50 [1, 3]: 316 µM | IC50 [1, 4]: 268 µM

Structure (SMILES): Oc1ccc(Cl)cc1 [4-chlorophenol]
time constant of channel inactivation τh ([1]; 500 μM drug): 0.23 ± 0.03 ms | frequency-dependent block: additional fall relative to the first pulse ([1]; 1000 μM drug): 13±2% | IC50 [1, 3]: 751 µM | IC50 [1, 4]: 666 µM

Structure (SMILES): CCN(CC)CC(=O)Nc1c(C)cccc1C [lidocaine, 2-diethylamino-2′,6′-dimethylacetanilide]
IC50 [2]: 500 µM
